Reference: paper PMC9354954, “Assessing Bioavailability and Bioactivity of 4-Hydroxythiazolidine-2-Thiones, Newly Discovered Glucosinolate Degradation Products Formed During Domestic Boiling of Cabbage” (Frontiers in Nutrition, 2022)

Assays:
GSK-3α = test system: GSK-3α; set-up: method as in PMID 31553649; settings: read-out: IC50 (50% inhibition) to inhibit isoform GSK-3α; cited from earlier work
GSK-3β = test system: GSK-3β; set-up: method as in PMID 31553649; settings: read-out: IC50 (50% inhibition) to inhibit GSK-3β; cited from earlier work
HepG2 = test system: HepG2; set-up: method as in PMID 14578469; settings: HepG2, 72 h of incubation time; read-out: IC50 (50% inhibition of cell growth); cited from earlier work
[1] = set-up: method as in PMID 8000299, PMID 9865427; settings: 10–12 h urine after consumption of horseradish or a mustard paste; cited from earlier work
[2] = Antioxidant potential, ABTS assay; settings: compared to compound free blank
Method: (§1) To evaluate the potential of allyl HTT and 4-MSOB HTT to act as antioxidants, ABTS and DPPH were used as model radicals and Trolox as reference antioxidants based on Shalaby and Shanab ([28]). In total, 1.5 mg of ABTS and 0.26 mg potassium peroxodisulfate were dissolved in 4 mL of pure water and incubated in the dark overnight at room temperature. Afterward, 36 mL of MeOH were added to obtain the fresh ABTS working solution. In the case of the DPPH assay, 1.1 mg of DPPH were dissolved in 4 mL of MeOH and incubated for 2 h in the dark at 4°C, followed by the addition of 36 mL of MeOH to obtain the fresh DPPH working solution. Standards of Trolox, allyl HTT, and 4-MSOB HTT were prepared in water/MeOH (90/10, v/v%) at concentrations in the range of 6.25–100 μM. To detect the antioxidant potential, 100 μL of standard or water/MeOH (90/10, v/v%) as control were added to 1,000 μL of ABTS or DPPH working solution, and the extinction was measured directly after mixing and after 6 min of incubation in the dark with a spectrometer (UviLine 9100, Schott Instruments, Mainz, Germany) at 734 nm in the case of ABTS assay and 515 nm in DPPH assay (each prepared as duplicate). The results are reported as mean ± SD of the reduction of the extinction compared to the control.

[3] = Antioxidant potential, DPPH assay; settings: compared to compound free blank
Method: as §1

[4] = test system: NAD(P)H dehydrogenase quinone 1 (NQO1); assay: NQO1 activity in HepG2 cells; assay type: cell-based, human; settings: 2 μM, 24 h, negative control 145 ± 8
Method: (§2) The effect of allyl HTT or 4-MSOB HTT on NAD(P)H dehydrogenase quinone 1 (NQO1) activity was tested for HepG2 cells and HCT116 pTRAF cells. HCT116 pTRAF is a cell line that was transfected with the pTRAF^Nrf2/HIF/NFκB [Johansson et al. ([29])], as described by Kipp et al. ([30]). HCT116 pTRAF cells were cultivated in McCoy's 5A medium + 1% penicillin/streptomycin + 10% FBS + 1% GlutaMAX + 0.2 mg/mL hygromycin B. HepG2 cells in RPMI medium were seeded in a 6-well-plate (sterile, Sarsted, Nümbrecht, Germany) with a density of 350,000 cells/well, and HCT116 pTRAF cells in culture medium without hygromycin B with a density of 100,000 cells/well. After 48 h of incubation under cell culture conditions, the medium was exchanged with the fresh medium as a negative control and a medium with concentrations of 1 μM and 100 μM of allyl HTT or 4-MSOB HTT. Medium containing 2 μM auranofin was used as a positive control. After 24 h of incubation under cell culture conditions, NQO1 activity was analyzed according to Müller et al. ([31]), and the results were reported as mean ± SD. Additionally, the t-test for independent samples per variable was performed to test if concentration-dependent differences exist.

[5] = test system: NAD(P)H dehydrogenase quinone 1 (NQO1); assay: NQO1 activity in HCT116 pTRAF cells; assay type: cell-based; settings: 2 μM, 24 h, negative control 51 ± 5
Method: as §2

[6] = cited from earlier work
endothelial cells = settings: cited from earlier work
[7] = test system: cultured hepatocytes from human liver transplants; settings: range of 10 μM and 50 μM; cited from earlier work
[8] = test system: Nrf2 target gene expression in alveolar macrophages and bronchial epithelial cells; settings: intervention with 150 μM; cited from earlier work
[9] = set-up: method as in doi:10.1002/14356007.a09_001; settings: cited from earlier work

SMILES: OC1(c2ccccc2)CSC(=S)N1Cc1ccncc1 (stereo not shown) [COB-187]
- IC50 (GSK-3α): 0.022 µM
- IC50 (GSK-3β): 0.011 µM

SMILES: C=CCN=C=S [allyl ITC, allyl isothiocyanate]
- IC50 (HepG2): 36 µM
- recovery of formed allyl ITC metabolites in urine [1]: 42–54%

SMILES: Cc1c(C)c2c(c(C)c1O)CCC(C)(C(=O)O)O2 (racemic) [Trolox, (±)-6-hydroxy-2,5,7,8-tetramethylchromane-2-carboxylic acid, reference compound]
- Relative signal reduction of the extinction value of the radical ABTS ([2]; 6.25 µM): 1.3 ± 0.4%
- Relative signal reduction of the extinction value of the radical ABTS ([2]; 12.5 µM): 1.9 ± 0.4%
- Relative signal reduction of the extinction value of the radical ABTS ([2]; 25 µM): 9.3 ± 0.5%
- Relative signal reduction of the extinction value of the radical ABTS ([2]; 50 µM): 16.5 ± 0.4%
- Relative signal reduction of the extinction value of the radical ABTS ([2]; 100 µM): 31.2 ± 0.4%
- Relative signal reduction of the extinction value of the radical DPPH ([3]; 6.25 µM): 0.8 ± 0.3%
- Relative signal reduction of the extinction value of the radical DPPH ([3]; 12.5 µM): 2.8 ± 0.3%
- Relative signal reduction of the extinction value of the radical DPPH ([3]; 25 µM): 3.5 ± 0.4%
- Relative signal reduction of the extinction value of the radical DPPH ([3]; 50 µM): 8.8 ± 0.6%
- Relative signal reduction of the extinction value of the radical DPPH ([3]; 100 µM): 17.5 ± 1.5%

SMILES: CC(=O)OC[C@H]1O[C@@H]([S-])[C@H](OC(C)=O)[C@@H](OC(C)=O)[C@@H]1OC(C)=O.CCP(CC)CC.[Au+] [auranofin, 1-thio-β-D-glucopyranosatotriethyl phosphine gold-2,3,4,6-tetraacetate]
- NQO1 activity [4]: 153 ± 4 mU/mg protein
- NQO1 activity [5]: 114 ± 7 mU/mg protein

SMILES: C[S+]([O-])CCCCN=C=S (stereo not shown) [sulforaphane]
- IC50 (HepG2): 13 µM
- bioavailability [6]: approximately 40%
- concentrations inducing apoptosis and cytotoxicity (endothelial cells): 20 to 40 µM
- cytotoxicity [7]: no significant cytotoxicity
- stimulation in Nrf2 target gene expression [8]: no stimulation

SMILES: CN1CCSC1=S [N-methyl-2-thiazolidinethione]
- toxicity [9]: low toxicity
